Laboratory results reported in US20220370440A1 (Lead Discovery Center GmbH, priority 2018, published 2022).

Key:
[1] = Metabolic stability in mouse liver microsomes without cofactor NADPH; type: in vitro ADME; settings: 3 μM test compound, mouse liver microsomes, without NADPH, 50 min, 37° C., LC-MS/MS
Source text: There are two major groups of enzyme reactions catalyzed by drug metabolizing enzymes, the so called Phase I and Phase II reactions. The basic processes in phase I reactions are oxidation, reduction and/or hydrolysis mostly catalyzed by the cytochrome P450 (CYP) family of enzymes.
The following procedures describe the determination of the in vitro Phase I metabolic stability of test compounds using liver microsomes by measuring compound depletion over time. Test compound at the concentration of 3 μM was incubated with the liver microsomes from the mouse species and the experiment was performed without NADPH. The depletion of the test compounds was measured over time up to 50 minutes at 37° C. by LC-MS/MS. Different compounds were tested under these conditions for microsomal stability (see Table 5).

A431 = A431 CellTiter-Glo; type: cell-based; settings: Homo sapiens, A-431; 72 h compound incubation; read-out: A431 CTG IC50
How it was run: (§1)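 Antiproliferative IC50 values come from a 72 h treatment of cultured cells, measured by CellTiter-Glo ATP luminescence. Only runs with a Z′-factor of at least 0.5, calculated from 16 vehicle and 16 Staurosporine (10 μM) control wells, are reported.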

[2] = target: EGFR Exon 20 INSNPH Ba/F3 (Homo sapiens, UniProt P00533, DUP771-773, cells depend on it); test: EGFR Exon 20 INSNPH Ba/F3 CellTiter-Glo; type: cell-based; settings: CellTiter-Glo, 72 h, read-out: EGFR Exon 20 INSNPH Ba/F3 CTG IC50
EGFR Exon 20 INSNPH Ba/F3, sequence (P00533 with tags, fused parts or gaps DUP771-773): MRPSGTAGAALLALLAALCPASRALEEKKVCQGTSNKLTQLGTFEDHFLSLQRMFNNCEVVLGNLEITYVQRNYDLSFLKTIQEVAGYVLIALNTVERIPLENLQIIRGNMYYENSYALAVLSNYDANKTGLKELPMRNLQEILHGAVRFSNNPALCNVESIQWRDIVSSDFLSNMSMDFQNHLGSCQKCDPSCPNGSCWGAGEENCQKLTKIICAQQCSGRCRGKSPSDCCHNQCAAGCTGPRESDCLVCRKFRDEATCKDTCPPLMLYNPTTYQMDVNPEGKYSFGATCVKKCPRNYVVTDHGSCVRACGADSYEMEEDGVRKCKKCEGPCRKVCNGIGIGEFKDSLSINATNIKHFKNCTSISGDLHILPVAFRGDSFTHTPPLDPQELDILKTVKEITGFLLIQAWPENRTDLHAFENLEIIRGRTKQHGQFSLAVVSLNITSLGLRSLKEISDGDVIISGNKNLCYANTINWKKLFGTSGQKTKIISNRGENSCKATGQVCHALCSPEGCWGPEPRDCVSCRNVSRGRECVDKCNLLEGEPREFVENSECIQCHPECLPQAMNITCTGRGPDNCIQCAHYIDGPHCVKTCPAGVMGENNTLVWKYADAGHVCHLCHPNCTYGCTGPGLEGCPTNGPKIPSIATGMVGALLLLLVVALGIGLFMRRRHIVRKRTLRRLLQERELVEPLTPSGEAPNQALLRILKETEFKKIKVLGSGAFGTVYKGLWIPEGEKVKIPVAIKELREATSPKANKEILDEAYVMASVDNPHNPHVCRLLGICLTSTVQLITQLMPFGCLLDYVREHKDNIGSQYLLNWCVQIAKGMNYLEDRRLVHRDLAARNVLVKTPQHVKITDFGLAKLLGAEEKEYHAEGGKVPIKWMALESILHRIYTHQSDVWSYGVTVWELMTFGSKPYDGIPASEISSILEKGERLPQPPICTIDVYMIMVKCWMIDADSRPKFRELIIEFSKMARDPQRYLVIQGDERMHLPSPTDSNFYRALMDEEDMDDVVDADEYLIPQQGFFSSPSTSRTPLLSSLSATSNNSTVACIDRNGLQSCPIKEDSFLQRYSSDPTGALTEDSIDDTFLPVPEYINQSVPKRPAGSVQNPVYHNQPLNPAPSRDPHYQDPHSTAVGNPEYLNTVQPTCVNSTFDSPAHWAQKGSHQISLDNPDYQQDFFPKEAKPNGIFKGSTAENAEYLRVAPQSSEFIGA
How it was run: (§2)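 Seed Ba/F3 cells; 24 h, 37 °C/5% CO2. Add cpds in DMSO, multiple concs; 72 h. CellTiter-Glo, 10 min RT, luminescence. IC50 by curve fit. Z′ ≥0.5 from DMSO vs 10 μM staurosporine.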

EGFR wt = EGFR wt (Homo sapiens, UniProt P00533); test: EGFR wt Lance assay; type: biochemical
EGFR wt, sequence (P00533 25-1210): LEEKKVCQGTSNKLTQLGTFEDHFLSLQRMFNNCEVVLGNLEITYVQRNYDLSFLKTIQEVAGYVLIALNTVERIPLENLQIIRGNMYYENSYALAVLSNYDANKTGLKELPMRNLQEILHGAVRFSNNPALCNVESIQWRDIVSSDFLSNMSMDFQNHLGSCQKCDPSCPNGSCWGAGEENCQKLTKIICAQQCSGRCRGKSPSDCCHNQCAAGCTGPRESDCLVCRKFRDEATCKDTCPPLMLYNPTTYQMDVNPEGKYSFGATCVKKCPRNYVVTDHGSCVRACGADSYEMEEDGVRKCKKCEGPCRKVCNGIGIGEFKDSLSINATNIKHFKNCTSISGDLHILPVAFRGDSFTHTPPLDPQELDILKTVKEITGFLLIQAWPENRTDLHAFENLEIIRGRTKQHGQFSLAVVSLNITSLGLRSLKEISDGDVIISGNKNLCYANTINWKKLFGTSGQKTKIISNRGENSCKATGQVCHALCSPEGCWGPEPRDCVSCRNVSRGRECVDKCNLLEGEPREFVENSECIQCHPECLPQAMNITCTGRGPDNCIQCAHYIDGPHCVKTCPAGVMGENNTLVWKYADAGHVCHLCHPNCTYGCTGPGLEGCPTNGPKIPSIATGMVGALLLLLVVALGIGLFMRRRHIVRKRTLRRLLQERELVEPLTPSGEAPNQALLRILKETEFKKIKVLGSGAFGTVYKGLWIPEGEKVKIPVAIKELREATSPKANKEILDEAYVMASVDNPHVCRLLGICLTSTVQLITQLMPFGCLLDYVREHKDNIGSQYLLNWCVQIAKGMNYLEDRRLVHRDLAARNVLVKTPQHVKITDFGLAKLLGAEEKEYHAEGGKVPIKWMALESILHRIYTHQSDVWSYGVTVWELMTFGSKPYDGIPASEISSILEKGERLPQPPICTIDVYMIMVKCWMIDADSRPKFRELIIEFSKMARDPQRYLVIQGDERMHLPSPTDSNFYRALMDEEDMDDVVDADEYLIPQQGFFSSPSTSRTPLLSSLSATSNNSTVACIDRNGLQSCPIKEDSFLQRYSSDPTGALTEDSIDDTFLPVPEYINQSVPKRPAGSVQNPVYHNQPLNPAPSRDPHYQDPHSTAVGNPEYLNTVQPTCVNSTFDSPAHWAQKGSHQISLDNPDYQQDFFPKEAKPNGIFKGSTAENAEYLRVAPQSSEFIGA
Description: (§3) Inhibition is indicated as […] [nM] (“−”=not measured). Compounds having an activity designated as “A” provided an IC50≤100 nM; compounds having an activity designated as “B” provided an 100 nM<IC50≤500 nM; compounds having an activity designated as “C” provided an 500 nM<IC50≤1000 nM; compounds having an activity designated as “D” provided an 1000 nM<IC50≤100000 nM; and compounds having an activity designated as “E” provided an IC50>10000 nM.

EGFR T790ML858R = EGFR T790ML858R (Homo sapiens, UniProt P00533, L858R/T790M); test: EGFR T790ML858R Lance assay; type: biochemical
EGFR T790ML858R, sequence (P00533 25-1210 T790M/L858R): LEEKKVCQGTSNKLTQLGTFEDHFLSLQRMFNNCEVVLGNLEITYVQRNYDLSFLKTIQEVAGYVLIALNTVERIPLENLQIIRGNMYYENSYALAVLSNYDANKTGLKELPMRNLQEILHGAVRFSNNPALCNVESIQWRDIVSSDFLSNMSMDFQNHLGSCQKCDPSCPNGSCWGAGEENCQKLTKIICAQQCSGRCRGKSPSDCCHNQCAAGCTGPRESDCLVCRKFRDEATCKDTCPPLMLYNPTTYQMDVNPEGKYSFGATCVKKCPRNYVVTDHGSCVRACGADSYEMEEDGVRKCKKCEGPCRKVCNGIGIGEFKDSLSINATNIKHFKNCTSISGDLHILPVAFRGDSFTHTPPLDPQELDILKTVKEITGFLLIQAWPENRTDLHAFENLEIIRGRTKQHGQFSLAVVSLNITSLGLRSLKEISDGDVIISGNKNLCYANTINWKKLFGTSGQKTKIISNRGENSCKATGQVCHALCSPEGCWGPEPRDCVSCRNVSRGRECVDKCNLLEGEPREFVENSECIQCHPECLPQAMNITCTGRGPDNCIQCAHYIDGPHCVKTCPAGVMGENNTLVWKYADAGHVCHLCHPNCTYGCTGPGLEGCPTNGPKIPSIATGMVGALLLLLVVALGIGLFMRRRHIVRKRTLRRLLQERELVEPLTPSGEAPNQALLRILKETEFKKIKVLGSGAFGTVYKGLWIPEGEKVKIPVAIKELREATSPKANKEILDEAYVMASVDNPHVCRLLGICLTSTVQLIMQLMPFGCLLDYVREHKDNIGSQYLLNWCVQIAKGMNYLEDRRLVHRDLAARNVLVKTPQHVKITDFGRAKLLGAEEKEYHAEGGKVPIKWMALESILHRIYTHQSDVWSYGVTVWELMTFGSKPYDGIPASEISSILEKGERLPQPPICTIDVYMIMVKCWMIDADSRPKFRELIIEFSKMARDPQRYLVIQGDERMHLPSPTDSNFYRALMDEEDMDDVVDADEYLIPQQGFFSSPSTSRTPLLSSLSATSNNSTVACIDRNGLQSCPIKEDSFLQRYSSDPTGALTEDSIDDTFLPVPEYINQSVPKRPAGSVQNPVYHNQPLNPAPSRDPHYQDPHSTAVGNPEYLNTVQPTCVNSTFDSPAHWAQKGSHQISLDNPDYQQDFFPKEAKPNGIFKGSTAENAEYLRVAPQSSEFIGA
Description: as §3

[3] = target: Her2 Exon 20 INSYVMA Ba/F3 (Homo sapiens, UniProt P04626, DUP772-775, cells depend on it); test: Her2 Exon 20 INSYVMA Ba/F3 CellTiter-Glo; type: cell-based; settings: CellTiter-Glo, 72 h, read-out: Her2 Exon 20 INSYVMA Ba/F3 CTG IC50
How it was run: as §2

H1975 = H1975 CellTiter-Glo; type: cell-based; settings: Homo sapiens, NCI-H1975; 72 h compound incubation; read-out: H1975 CTG IC50
How it was run: as §1

HER2 INS YVMA = target: T1, HER2 INS YVMA (Homo sapiens, UniProt P04626, INS775YVMA); test: Lance Kinase Activity Assay, HER2 INS YVMA (Her2 Exon 20 INSYVMA Lance); type: biochemical; settings: biochemical Lance assay
T1 construct: purchased DPF
T1 sequence (P04626 with tags, fused parts or gaps INS775YVMA): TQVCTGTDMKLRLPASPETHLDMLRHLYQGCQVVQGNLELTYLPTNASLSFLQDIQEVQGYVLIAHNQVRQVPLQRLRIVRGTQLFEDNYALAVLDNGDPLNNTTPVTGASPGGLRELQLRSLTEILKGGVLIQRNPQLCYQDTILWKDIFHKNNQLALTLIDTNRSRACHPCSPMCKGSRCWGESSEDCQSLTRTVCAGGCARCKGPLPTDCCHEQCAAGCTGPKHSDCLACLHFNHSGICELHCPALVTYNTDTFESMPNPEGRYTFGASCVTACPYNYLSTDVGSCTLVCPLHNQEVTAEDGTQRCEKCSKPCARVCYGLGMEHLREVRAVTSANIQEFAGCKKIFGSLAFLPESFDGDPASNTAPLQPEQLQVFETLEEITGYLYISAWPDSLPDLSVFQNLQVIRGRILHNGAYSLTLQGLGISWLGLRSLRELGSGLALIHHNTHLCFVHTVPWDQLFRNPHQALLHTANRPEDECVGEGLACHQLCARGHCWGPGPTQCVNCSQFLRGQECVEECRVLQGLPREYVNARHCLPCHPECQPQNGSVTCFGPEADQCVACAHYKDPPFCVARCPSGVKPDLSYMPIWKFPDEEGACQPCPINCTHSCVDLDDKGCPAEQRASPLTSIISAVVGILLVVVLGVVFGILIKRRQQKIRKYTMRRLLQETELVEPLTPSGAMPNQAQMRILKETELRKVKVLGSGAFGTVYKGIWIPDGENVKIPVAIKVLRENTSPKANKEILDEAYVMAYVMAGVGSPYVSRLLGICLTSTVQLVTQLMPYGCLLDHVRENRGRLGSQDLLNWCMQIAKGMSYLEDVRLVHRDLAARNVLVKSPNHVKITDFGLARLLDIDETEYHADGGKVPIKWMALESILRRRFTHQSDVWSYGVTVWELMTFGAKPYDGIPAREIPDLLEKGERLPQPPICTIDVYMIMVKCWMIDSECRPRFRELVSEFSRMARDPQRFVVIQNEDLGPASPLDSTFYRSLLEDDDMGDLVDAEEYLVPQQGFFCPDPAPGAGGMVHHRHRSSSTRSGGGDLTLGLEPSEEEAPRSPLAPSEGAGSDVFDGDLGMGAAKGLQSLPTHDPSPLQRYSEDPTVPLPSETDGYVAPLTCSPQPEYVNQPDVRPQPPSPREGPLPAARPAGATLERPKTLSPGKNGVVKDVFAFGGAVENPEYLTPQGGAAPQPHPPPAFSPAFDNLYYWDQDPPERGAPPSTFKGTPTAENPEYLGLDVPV
How it was run: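 Kinase phosphorylates a ULight-labelled peptide substrate; Eu anti-phospho antibody gives TR-FRET (ex 340 nm, em 665/615 nm). Compounds in 1:3 serial dilution over 8 steps, reaction started with ATP, 1 h at room temperature, stopped with EDTA-containing detection mix for 1 h. IC50 from sigmoidal dose-response curves.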

Row | Stability in presence of mouse liver microsomes without cofactor NADPH [% remaining after 50 min] [1] [% remaining after 50 min] | IC50 (A431) [nM] | GI50 [2] [nM] | IC50 (EGFR wt) [nM] | IC50 (EGFR T790ML858R) [nM] | GI50 [3] [nM] | IC50 (H1975) [nM] | IC50 (HER2 INS YVMA) [nM] | SMILES
1 | >99 | 500 to 1000 | 100 to 500 | ≤ 100 | ≤ 100 | 100 to 500 | ≤ 100 | ≤ 100 | C=CC(=O)N1CCc2ccc(-c3c(-c4ccc(N5CCN(CC)CC5)cc4)[nH]c4nccc(Cl)c34)cc21 [Example 63, 1-(6-(4-chloro-2-(4-(4-ethylpiperazin-1-yl)phenyl)-1H-pyrrolo[2,3-b]pyridin-3-yl)indolin-1-yl)prop-2-en-1-one]
2 | >99 | 500 to 1000 | 100 to 500 | ≤ 100 | ≤ 100 | 100 to 500 | ≤ 100 | ≤ 100 | C=CC(=O)N1CCc2ccc(-c3c(-c4cccc(OCCN5CCCC5)c4)[nH]c4nccc(Cl)c34)cc21 [Example 64, 1-(6-(4-chloro-2-(3-(2-(pyrrolidin-1-yl)ethoxy)phenyl)-1H-pyrrolo[2,3-b]pyridin-3-yl)indolin-1-yl)prop-2-en-1-one]
3 | >99 | 500 to 1000 | 500 to 1000 | ≤ 100 | ≤ 100 | 100 to 500 | ≤ 100 | ≤ 100 | C=CC(=O)N1CCc2ccc(-c3c(-c4ccc(N(C)CCN(C)C)cc4)[nH]c4nccc(Cl)c34)cc21 [Example 65, 1-(6-(4-chloro-2-(4-((2-(dimethylamino)ethyl)(methyl)amino)phenyl)-1H-pyrrolo[2,3-b]pyridin-3-yl)indolin-1-yl)prop-2-en-1-one]
4 | >99 | 1000 to 100000 | 500 to 1000 | ≤ 100 | ≤ 100 | 100 to 500 | 100 to 500 | ≤ 100 | C=CC(=O)N1CCc2ccc(-c3c(-c4ccc(C(=O)N5CCN(C)CC5)cc4)[nH]c4nccc(Cl)c34)cc21 [Example 66, 1-(6-(4-chloro-2-(4-(4-methylpiperazine-1-carbonyl)phenyl)-1H-pyrrolo[2,3-b]pyridin-3-yl)indolin-1-yl)prop-2-en-1-one]
5 | >99 | 1000 to 100000 | 100 to 500 | ≤ 100 | ≤ 100 | 100 to 500 | 100 to 500 | ≤ 100 | C=CC(=O)N1CCc2ccc(-c3c(-c4ccc(OCCN(C)C)cc4)[nH]c4nccc(Cl)c34)cc21 [Example 67, 1-(6-(4-chloro-2-(4-(2-(dimethylamino)ethoxy)phenyl)-1H-pyrrolo[2,3-b]pyridin-3-yl)indolin-1-yl)prop-2-en-1-one]
6 | >99 | 1000 to 100000 | 1000 to 10000 | ≤ 100 | ≤ 100 | 500 to 1000 | 100 to 500 | ≤ 100 | C=CC(=O)N1CCc2ccc(-c3c(-c4ccc(CN5CCOCC5)cc4)[nH]c4nccc(Cl)c34)cc21 [Example 68, 1-(6-(4-chloro-2-(4-(morpholinomethyl)phenyl)-1H-pyrrolo[2,3-b]pyridin-3-yl)indolin-1-yl)prop-2-en-1-one]
7 | 98 | 500 to 1000 | 100 to 500 | ≤ 100 | ≤ 100 | 100 to 500 | ≤ 100 | ≤ 100 | C=CC(=O)N1CCc2ccc(-c3c(-c4cccc(CN5CCN(C)CC5)c4)[nH]c4nccc(Cl)c34)cc21 [Example 69, 1-(6-(4-chloro-2-(3-((4-methylpiperazin-1-yl)methyl)phenyl)-1H-pyrrolo[2,3-b]pyridin-3-yl)indolin-1-yl)prop-2-en-1-one]
8 | >99 | 500 to 1000 | 500 to 1000 | ≤ 100 | ≤ 100 | 100 to 500 | 100 to 500 | ≤ 100 | C=CC(=O)N1CCc2ccc(-c3c(-c4ccc(N5CCN(C)CC5)nc4)[nH]c4nccc(Cl)c34)cc21 [Example 70, 1-(6-(4-chloro-2-(6-(4-methylpiperazin-1-yl)pyridin-3-yl)-1H-pyrrolo[2,3-b]pyridin-3-yl)indolin-1-yl)prop-2-en-1-one]
9 | >99 | 500 to 1000 | 500 to 1000 | ≤ 100 | ≤ 100 | 100 to 500 | 100 to 500 | ≤ 100 | C=CC(=O)N1CCc2ccc(-c3c(-c4ccc(OCCCN(C)C)cc4)[nH]c4nccc(Cl)c34)cc21 [Example 71, 1-(6-(4-chloro-2-(4-(3-(dimethylamino)propoxy)phenyl)-1H-pyrrolo[2,3-b]pyridin-3-yl)indolin-1-yl)prop-2-en-1-one]
10 | 90 | 500 to 1000 | 100 to 500 | ≤ 100 | ≤ 100 | 500 to 1000 | ≤ 100 | ≤ 100 | C=CC(=O)Nc1cc(-c2c(-c3ccc(N4CCN(C(C)=O)CC4)cc3)[nH]c3nccc(OC)c23)ccc1C [Example 74, N-(5-(2-(4-(4-acetylpiperazin-1-yl)phenyl)-4-methoxy-1H-pyrrolo[2,3-b]pyridin-3-yl)-2-methylphenyl)acrylamide]
11 | >99 | 1000 to 100000 | 1000 to 10000 | 100 to 500 | ≤ 100 | 1000 to 10000 | 100 to 500 | 500 to 1000 | C=CC(=O)Nc1cc(-c2c(-c3ccnc(N4CCOCC4)c3)[nH]c3ncccc23)ccc1C [Example 80, N-(2-methyl-5-(2-(2-morpholinopyridin-4-yl)-1H-pyrrolo[2,3-b]pyridin-3-yl)phenyl)acrylamide]
12 | 80 | 1000 to 100000 | 1000 to 10000 | 100 to 500 | ≤ 100 | 1000 to 10000 | 1000 to 100000 | 1000 to 10000 | C=CC(=O)Nc1cc(-c2c(-c3cccc(CN4CCN(C(C)=O)CC4)c3)[nH]c3ncccc23)ccc1C [Example 81, N-(5-(2-(3-((4-acetylpiperazin-1-yl)methyl)phenyl)-1H-pyrrolo[2,3-b]pyridin-3-yl)-2-methylphenyl)acrylamide]
13 | 97 | 1000 to 100000 | 1000 to 10000 | 100 to 500 | ≤ 100 | 1000 to 10000 | 500 to 1000 | 1000 to 10000 | C=CC(=O)Nc1cc(-c2c(-c3cccc(CN4CCOCC4)c3)[nH]c3ncccc23)ccc1C [Example 82, N-(2-methyl-5-(2-(3-(morpholinomethyl)phenyl)-1H-pyrrolo[2,3-b]pyridin-3-yl)phenyl)acrylamide]
14 | 94 | 500 to 1000 | 100 to 500 | ≤ 100 | ≤ 100 | 100 to 500 | 100 to 500 | ≤ 100 | C=CC(=O)N1CCOc2ccc(-c3c(-c4ccc(N(C)CCN(C)C)cc4)[nH]c4nccc(Cl)c34)cc21 [Example 84, 1-(6-(4-chloro-2-(4-((2-(dimethylamino)ethyl)(methyl)amino)phenyl)-1H-pyrrolo[2,3-b]pyridin-3-yl)-2H-benzo[b][1,4]oxazin-4(3H)-yl)prop-2-en-1-one]
